From ChEMBL document CHEMBL5390201, “The Natural Alkaloid (-)-N-Hydroxyapiosporamide Suppresses Colorectal Tumor Progression as an NF-κB Pathway Inhibitor by Targeting the TAK1-TRAF6 Complex” (J Nat Prod, 2023)
Calls of active or inactive are those of the source. The calls are words filed in the database; no cut-off is given here.

Key:
[1] = tested on: HT-29; test: Induction of apoptosis in human HT-29 cells assessed as viable cells at 5 uM incubated for 24 hrs by Annexin V-FITC/PI staining based flow cytometric analysis (reference value: 93 %); assay type: functional; details: read-out: Activity
[2] = tested on: Mus musculus; test: In vivo inhibition of NFkappaB activation in athymic BALB/c mouse xenografted with human HT-29 cells assessed as reduction in E-selectin gene expression in tumor at 5 to 15 mg/kg, ip administered every other day and measured after 14 days by qRT-PCR analysis; assay type: functional, organism-based; details: dose 5-15 mg/kg, time 14.0 day
[3] = tested on: HCT-116; test: Induction of apoptosis in human HCT-116 cells assessed as inhibition of PARP protein expression measured for 24 hrs by Western blot analysis; assay type: functional, cell-based; details: dose 0-10 µM
[4] = tested on: HCT-116; test: Induction of cell cycle arrest in human HCT-116 cells assessed as accumulation of cells at G2/M phase at 10 uM by RNase/PI staining based flow cytometry analysis (reference value: 23.15 %); assay type: functional
[5] = tested on: HT-29; test: Induction of cell cycle arrest in human HT-29 cells assessed as accumulation of cells at G2/M phase at 10 uM by RNase/PI staining based flow cytometry analysis (reference value: 9.93 %); assay type: functional
[6] = target: T1, Nuclear factor NF-kappa-B complex (Homo sapiens) (UniProt Q00653+P19838+Q04206); test: Inhibition of TNF-alpha induced NFkappaB activation in human HT-29 cells assessed as downregulation of A20 gene expression pretreated for 24 hrs followed by TNFalpha stimulation and measured after 2 hrs by quantitative RT-PCR analysis; assay type: cell-based; details: dose 1-10 µM, time 26.0 hrs
T1 sequence (P19838 whole entry, looked up): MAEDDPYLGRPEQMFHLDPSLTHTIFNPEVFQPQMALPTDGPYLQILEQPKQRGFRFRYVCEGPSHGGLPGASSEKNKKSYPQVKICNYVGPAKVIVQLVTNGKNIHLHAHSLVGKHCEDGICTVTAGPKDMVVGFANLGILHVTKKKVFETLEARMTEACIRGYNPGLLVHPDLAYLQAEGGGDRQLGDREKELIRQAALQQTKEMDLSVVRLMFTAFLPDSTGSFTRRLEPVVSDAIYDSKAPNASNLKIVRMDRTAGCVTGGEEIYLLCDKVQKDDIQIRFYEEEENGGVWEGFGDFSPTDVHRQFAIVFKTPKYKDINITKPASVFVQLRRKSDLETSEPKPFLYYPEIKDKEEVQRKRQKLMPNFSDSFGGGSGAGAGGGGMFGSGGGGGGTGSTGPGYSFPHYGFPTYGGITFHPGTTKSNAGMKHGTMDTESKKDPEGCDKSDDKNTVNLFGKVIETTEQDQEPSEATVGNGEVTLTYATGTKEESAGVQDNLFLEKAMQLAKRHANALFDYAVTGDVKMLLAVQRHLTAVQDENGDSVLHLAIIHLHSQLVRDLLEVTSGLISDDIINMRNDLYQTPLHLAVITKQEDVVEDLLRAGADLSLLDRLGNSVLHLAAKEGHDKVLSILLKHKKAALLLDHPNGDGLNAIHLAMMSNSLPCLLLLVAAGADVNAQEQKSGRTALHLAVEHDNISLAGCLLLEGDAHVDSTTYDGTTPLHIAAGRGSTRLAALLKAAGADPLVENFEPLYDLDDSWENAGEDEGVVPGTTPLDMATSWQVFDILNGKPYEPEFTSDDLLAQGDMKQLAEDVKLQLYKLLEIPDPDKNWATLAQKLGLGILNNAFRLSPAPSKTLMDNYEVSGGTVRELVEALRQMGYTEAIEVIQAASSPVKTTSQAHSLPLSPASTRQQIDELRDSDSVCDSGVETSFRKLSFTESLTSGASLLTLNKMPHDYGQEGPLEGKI
T1 sequence (Q00653 whole entry, looked up): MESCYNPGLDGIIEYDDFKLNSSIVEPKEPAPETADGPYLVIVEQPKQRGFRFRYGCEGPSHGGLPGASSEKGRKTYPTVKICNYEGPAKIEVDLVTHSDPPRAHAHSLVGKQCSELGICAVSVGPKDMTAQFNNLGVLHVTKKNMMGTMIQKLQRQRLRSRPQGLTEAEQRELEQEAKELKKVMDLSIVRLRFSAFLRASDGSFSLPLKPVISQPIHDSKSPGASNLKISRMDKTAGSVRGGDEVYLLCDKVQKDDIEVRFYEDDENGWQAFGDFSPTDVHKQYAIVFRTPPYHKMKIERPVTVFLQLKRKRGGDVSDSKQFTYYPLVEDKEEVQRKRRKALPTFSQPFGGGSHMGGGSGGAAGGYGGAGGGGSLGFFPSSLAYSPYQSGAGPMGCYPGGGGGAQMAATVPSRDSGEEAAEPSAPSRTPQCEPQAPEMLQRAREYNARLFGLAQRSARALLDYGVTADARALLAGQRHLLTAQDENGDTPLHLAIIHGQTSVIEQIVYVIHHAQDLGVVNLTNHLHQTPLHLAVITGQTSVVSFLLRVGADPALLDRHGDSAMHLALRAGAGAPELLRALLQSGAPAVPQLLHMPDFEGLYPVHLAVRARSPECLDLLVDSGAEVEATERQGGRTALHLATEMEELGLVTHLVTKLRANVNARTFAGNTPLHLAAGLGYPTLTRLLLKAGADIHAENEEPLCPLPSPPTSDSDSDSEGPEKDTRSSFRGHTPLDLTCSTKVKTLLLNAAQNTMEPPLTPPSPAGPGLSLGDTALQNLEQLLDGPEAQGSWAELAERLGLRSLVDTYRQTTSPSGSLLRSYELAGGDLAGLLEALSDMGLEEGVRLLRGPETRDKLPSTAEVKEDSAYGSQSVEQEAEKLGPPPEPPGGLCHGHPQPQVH
T1 sequence (Q04206 whole entry, looked up): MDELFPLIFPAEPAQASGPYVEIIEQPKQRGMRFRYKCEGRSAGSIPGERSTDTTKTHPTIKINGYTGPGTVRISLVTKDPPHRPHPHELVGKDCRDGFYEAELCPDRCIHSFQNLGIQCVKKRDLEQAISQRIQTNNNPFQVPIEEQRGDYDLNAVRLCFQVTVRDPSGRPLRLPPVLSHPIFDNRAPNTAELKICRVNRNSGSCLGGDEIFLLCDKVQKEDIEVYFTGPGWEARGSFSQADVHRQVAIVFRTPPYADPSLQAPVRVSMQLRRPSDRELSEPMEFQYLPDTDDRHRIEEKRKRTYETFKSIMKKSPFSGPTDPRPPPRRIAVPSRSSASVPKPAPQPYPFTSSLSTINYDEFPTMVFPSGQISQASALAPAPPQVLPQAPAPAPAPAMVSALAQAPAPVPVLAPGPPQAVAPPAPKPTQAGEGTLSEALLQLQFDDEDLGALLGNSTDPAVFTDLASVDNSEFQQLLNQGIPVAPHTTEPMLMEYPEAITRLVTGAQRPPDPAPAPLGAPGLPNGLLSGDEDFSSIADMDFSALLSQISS

[7] = tested on: HT-29; test: Induction of apoptosis in human HT-29 cells assessed as early apoptotic cells at 10 uM incubated for 24 hrs by Annexin V-FITC/PI staining based flow cytometric analysis (reference value: 5.29 %); assay type: functional
[8] = tested on: Mus musculus; test: In vivo inhibition of NFkappaB activation in athymic BALB/c mouse xenografted with human HT-29 cells assessed as reduction in MCP-1 gene expression in tumor at 5 to 15 mg/kg, ip administered every other day and measured after 14 days by qRT-PCR analysis; assay type: functional, organism-based; details: dose 5-15 mg/kg, time 14.0 day
[9] = tested on: Cell membrane; test: Disruption of mitochondrial membrane potential in human HCT-116 cells at 0.25 to 10 uM measured after 24 hrs by JC-1 staining based flow cytometry analysis; assay type: subcellular; details: dose 0.25-10 µM
[10] = target: T1, Nuclear factor NF-kappa-B complex (Homo sapiens); test: Inhibition of NFkappaB activation in HEK293T cells transfected with HA-tagged p65 and kappaB luciferase/pTK-renilla reporters at 2 uM incubated for 6 hrs by Dual Luciferase Reporter Assay; assay type: cell-based; details: HEK-293T
[11] = tested on: Mus musculus; test: Anti-inflammatory activity in AOM/DSS-induced BALB/c mouse model inflammatory bowel disease assessed as reduction in tumor load at 5 to 10 mg/kg, ip pretreated with AOM for 7 days further replaced with DSS for 7 days and repeated for 2 times followed by every 2 days compound treatment for […] starting from day 50 and measured once a week; assay type: functional, organism-based; details: dose 5-10 mg/kg, time 21.0 day
[12] = tested on: HCT-116; test: Induction of apoptosis in human HCT-116 cells assessed as early apoptotic cells at 5 uM incubated for 24 hrs by Annexin V-FITC/PI staining based flow cytometric analysis (reference value: 7.22 %); assay type: functional
[13] = tested on: HT-29; test: Induction of apoptosis in human HT-29 cells assessed as late apoptotic cells at 5 uM incubated for 24 hrs by Annexin V-FITC/PI staining based flow cytometric analysis (reference value: 6.91 %); assay type: functional
[14] = target: T1, Nuclear factor NF-kappa-B complex (Homo sapiens); test: Inhibition of NFkappaB activation in HEK293T cells transfected with Flag-tagged TRAF2 and kappaB luciferase/pTK-renilla reporters at 2 uM incubated for 6 hrs by Dual Luciferase Reporter Assay; assay type: cell-based; details: HEK-293T
[15] = tested on: HCT-116; test: Induction of cell cycle arrest in human HCT-116 cells assessed as decrease in Cdc2 protein expression upto 10 uM incubated for 24 hrs by Western blot analysis; assay type: functional, cell-based
[16] = tested on: HCT-116; test: Induction of apoptosis in human HCT-116 cells assessed as early apoptotic cells at 0.25 uM incubated for 24 hrs by Annexin V-FITC/PI staining based flow cytometric analysis (reference value: 7.22 %); assay type: functional
[17] = tested on: HT-29; test: Induction of cell cycle arrest in human HT-29 cells assessed as accumulation of cells at S phase at 5 uM by RNase/PI staining based flow cytometry analysis (reference value: 39.34%); assay type: functional
[18] = tested on: HT-29; test: Induction of apoptosis in human HT-29 cells assessed as increase in cleavage of PARP measured for 24 hrs by Western blot analysis; assay type: functional, cell-based; details: dose 0-10 µM
[19] = tested on: HCT-15; test: Cytotoxicity against human HCT-15 cells assessed as decrease in cell viability incubated for 48 hrs by SRB assay; assay type: functional, cell-based; details: HCT-15, 48 h
[20] = tested on: HT-29; test: Induction of cell cycle arrest in human HT-29 cells assessed as decrease in Cyclin B protein expression upto 10 uM incubated for 24 hrs by Western blot analysis; assay type: functional, cell-based
[21] = tested on: HCT-116; test: Induction of apoptosis in human HCT-116 cells assessed as necrotic cells at 0.5 uM incubated for 24 hrs by Annexin V-FITC/PI staining based flow cytometric analysis (reference value: 1.1 %); assay type: functional
[22] = tested on: Cell membrane; test: Disruption of mitochondrial membrane potential in human HT-29 cells at 0.25 to 10 uM measured after 24 hrs by JC-1 staining based flow cytometry analysis; assay type: subcellular; details: dose 0.25-10 µM
[23] = tested on: HCT-116; test: Induction of apoptosis in human HCT-116 cells assessed as late apoptotic cells at 5 uM incubated for 24 hrs by Annexin V-FITC/PI staining based flow cytometric analysis (reference value: 16.9 %); assay type: functional
[24] = Toxicity in athymic nude BALB/c mouse xenografted with human HCT-116 cells assessed as pathological changes in spleen at 5 to 15 mg/kg, ip administered every other day and measured after 14 days by hematoxylin and eosin staining-based microscopic analysis; assay type: organism-based; details: in vivo, 336 h, dose 5-15 mg/kg, time 14 day
[25] = tested on: Cell membrane; test: Disruption of mitochondrial membrane potential in human HT-29 cells at upto 10 uM measured after 24 hrs by JC-1 staining based fluorescence microscopy; assay type: subcellular
[26] = target: T1, Nuclear factor NF-kappa-B complex (Homo sapiens); test: Inhibition of TNF-alpha induced NFkappaB activation in human HT-29 cells assessed as downregulation of E-selectin gene expression pretreated for 24 hrs followed by TNFalpha stimulation and measured after 2 hrs by quantitative RT-PCR analysis; assay type: cell-based; details: dose 1-10 µM, time 26.0 hrs
[27] = Plasma clearance in Sprague-Dawley rat at 10 mg/kg, iv measured for 24 hrs by HPLC-MS/MS analysis; assay type: ADME, organism-based
[28] = tested on: HT-29; test: Induction of autophagic flux in human HT-29 cells assessed as increase in LC3 protein expression preincubated with chloroquine for 1 hr followed by compound addition and measured after 24 hrs by Western blot analysis; assay type: functional, cell-based
[29] = tested on: HT-29; test: Antitumor activity against human HT-29 cells xenografted in athymic nude BALB/c mouse assessed as induction of apoptosis by measuring increase in cleaved PARP expression in tumor at 15 mg/kg, ip administered every other day and measured after 14 days by immunohistochemistry analysis; assay type: functional, organism-based; details: time 14.0 day
[30] = tested on: HCT-116; test: Cytotoxicity against human HCT-116 cells assessed as inhibition of cell growth incubated for 24 hrs by SRB assay; assay type: functional, cell-based; details: HCT-116, 24 h
[31] = Toxicity in athymic nude BALB/c mouse xenografted with human HT-29 cells assessed as pathological changes in kidney at 5 to 15 mg/kg, ip administered every other day and measured after 14 days by hematoxylin and eosin staining-based microscopic analysis; assay type: organism-based; details: in vivo, 336 h, dose 5-15 mg/kg, time 14 day

Structure (SMILES): C[C@@H]1CC[C@H]2[C@H](C(=O)c3c(O)c([C@@]4(O)CC[C@@H](O)[C@H]5O[C@H]54)cn(O)c3=O)[C@H](C)C=C[C@@H]2C1
- viability at 5 µM [1]: 39.3%
- inhibition [2]: Active
- Activity [3]: Dose-Dependent Effect
- Activity [4]: 14.17%
- Activity [5]: 0.78%
- inhibition [6]: Dose-Dependent Effect
- Activity [7]: 46.2%
- inhibition [8]: Active
- Activity [9]: Active
- inhibition [10]: Active
- Activity [11]: Active
- Activity [12]: 16.2%
- Activity [13]: 21.9%
- inhibition [14]: Active
- Activity [15]: Active
- Activity [16]: 8.93%
- Activity [17]: 32.46%
- Activity [18]: Dose-Dependent Effect
- IC50 [19]: 570 nM
- Activity [20]: Active
- Activity [21]: 2.54%
- Activity [22]: Active
- Activity [23]: 78.5%
- Activity [24]: Non-Toxic
- Activity [25]: Active
- inhibition [26]: Dose-Dependent Effect
- clearance [27]: 4 mL/min/kg
- Activity [28]: Active
- Activity [29]: Active
- IC50 [30]: 2800 nM
- Activity [31]: Non-Toxic
